These results are taken from patent publication US20260174674A1, “INCOMPLETE AUTOPHAGY INDUCTION FOR THE TREATMENT OF CANCER” (Northwestern University, priority 2022, published 2026).

Each structure is given as a SMILES string.

In one data set the test system is α-synuclein. The conditions noted are these: cited from earlier work.
Another data set deals with brain metastases. The following applies: added to whole-brain radiation, cited from earlier work.
For data set [1] the following is noted: cited from earlier work.
Data set [2] has as its system caspase 3/7 activity in BT-474Br. Description: Caspase 3/7 assay. Type of data set: cell-based.
Another data set has as its system NDRG1 in MDA-MB-231Br. Description: NDRG1 and pNDRG1 expression. Type of data set: cell-based. The following applies: dose-dependent treatment. The protocol:
(§1) Upon further analysis of the RPPA data, the phosphorylation of N-Myc Downstream Regulated 1 (NDRG1) was noted to be relevant in four major pathways related to autophagy after 24 hours of metixene treatment. […] To confirm the role of NDRG1 in autophagy, NDRG1 knockout (KO) cells were generated using CRISPR Cas9 in MDA-MB-231Br cells. The cells were then treated with metixene in a dose-dependent manner and compared to cells transfected with a vector control.

Data set [3] relates to NDRG1 KO MDA-MB-231Br cells. Description: NDRG1 CRISPR Cas9 knockout versus vector control. Type of data set: cell-based. On the procedure: as §1
(§2) The inventors then checked whether NDRG1 is further involved in the apoptotic cell death induced by metixene. A cell viability assay was conducted to check the effect of NDRG1 KO versus vector control upon metixene dose-dependent treatment. […] Upon NDRG1 KO, autophagy is completed, and the caspase-mediated pathway of apoptosis is not activated. This mechanism applies to primary brain cancers, such as glioblastoma (FIG. 4A), and other metastatic cancers to the brain, such as lung cancer (FIG. 4B) and melanoma (FIG. 4C).

Data set [4] deals with BT-474 and BT-474Br and MDA-MB-231 and MDA-MB-231Br. The data set is described as follows: Autophagy induction with increasing concentration (LC3, SQSTM1/p62). Type of data set: cell-based. The protocol: (§3) The efficacy of metixene in inducing autophagy was tested in two primary breast and brain metastatic cancer cell lines, using BT-474 and BT-474Br and MDA-MB-231 and MDA-MB-231Br, respectively.

For data set [5], the system named is BT-474Br intracranial tumors. The data set is described as follows: Stereotactic intracranial model of BCBM. The format is in vivo, nude mice. The protocol:
(§4) All animal studies were completed per the National Institutes of Health guidelines on the care and use of laboratory animals for research purposes. The Institutional Committee on Animal Use at Northwestern University approved the protocols. Six- to eight-week-old athymic, immunodeficient (nu/nu) female mice were obtained from Charles River and maintained in a specific pathogen-free facility. For mammary gland injections, 1×10^6 HCC1954 cells were injected in the inguinal mammary fat pad of nude female mice. For the stereotactic intracranial injection, mice were placed in a stereotactic frame, and 5×10^5 BT-474Br cells were intracranially injected at a depth of 3 mm. For intracarotid artery injections, 1×10^6 MDA-MB-231Br cells were injected using a 31-gauge BD insulin syringe into the lumen of internal carotid artery.
After showing its anti-tumor effect in vivo, whether metixene could improve survival in different preclinical models of brain metastases was tested. A stereotactic intracranial injection of HER2-positive BT474-Br cells was performed in nude mice. After 10 days of recovery and tumor growth, the mice were divided into two groups that were treated intraperitoneally: control (25% captisol, n=7); and metixene (1.0 mg/kg, n=8). The dosages were given three times per week.

For data set [6], the system named is cleaved caspase-3 in BT-474Br. The data set is described as follows: Cleaved caspase-3 protein expression. Type of data set: cell-based. The conditions noted are these: 24 hours. From the text: (§5) Next, whether metixene induces apoptotic cell death was investigated. […] Immunofluorescence analysis of metixene-treated BT-474Br and MDA-MB-231Br cells confirmed increased cleaved caspase-3 expression.

Data set [7] has as its system cleaved caspase-3 in MDA-MB-231Br. Description: Cleaved caspase-3 protein expression. The format is cell-based. The conditions noted are these: 24 hours.
Excerpt: as §5

For the next data set, the system named is LC3 in BT-474Br cells. The data set is described as follows: LC3 puncta immunofluorescence. Type of data set: cell-based. The conditions noted are these: 10 μM; P=0.015. On the procedure:
as §3

Data set [8] has as its system BT-474Br, a HER2-positive BCBM cell line. The data set is described as follows: CNS drug screen, CellTiter-Glo cell viability. The conditions noted are these: 25 μM, 72 hours, Cell Titer Glo. Type of data set: cell-based. The protocol: (§6) The Prestwick CNS Drug Library of 320 CNS compounds was purchased from Prestwick Chemical Libraries for screening. Cells were seeded at a density of 5000 cells/well in clear, flatbottomed, black-walled, 96-well plates. Each compound from the library was added at a final concentration of 25 μM per well 1 day after seeding of cells. After three days of treatment, cell viability was measured using CellTiter-Glo® Luminescent Cell Viability Assay (Promega) according to the manufacturer's instructions.
A blinded screen was conducted on a drug library comprising 320 structurally diverse drugs that are FDA approved, blood brain barrier (BBB) permeable, and known for their pharmacological effects on the CNS to identify potential hits for therapeutic intervention against brain metastases. Using BT-474Br, a HER2-positive BCBM cell line, the efficacy of the 320 compounds were screened at a standard concentration of 25 μM. After 72 hours of treatment, a cell viability assay was performed using Cell Titer Glo to determine the number of viable, metabolically active cells in culture. The screen yielded five different therapeutic agents that caused a vast reduction (>95%) in cell viability in vitro.

The subject of data set [9] is MDA-MB-231-Br brain metastases. The data set is described as follows: Intracarotid model of multiple brain metastases. The format is in vivo, nude mice. The following applies: 1.0 mg/kg intraperitoneally three times per week, p=0.037. On the procedure:
as §4
The model was established through a systemic intracarotid injection of triple-negative MDA-MB-231-Br cells in nude mice. Ten days after injection of tumor cells, mice were randomly divided into two groups and treated intraperitoneally with: control (25% captisol, n=5) and metixene (1.0 mg/kg, n=6). The treatments were given three times per week.

Data set [10] concerns H2030Br lung cancer brain metastatic cells. The data set is described as follows: Cell killing in lung cancer brain metastatic cells. The following applies: increasing amount of metixene. The format is cell-based. On the procedure:
(§7) FIGS. 4A-4C. Metixene induces cell death in primary brain tumors and other metastatic cancers. (FIG. 4A) CT2A glioma cells were treated with increasing amount of metixene. […] (FIG. 4B) H2030Br lung cancer brain metastatic cells were treated with increasing amount of metixene. […] (FIG. 4C) WM3734 melanoma brain metastatic cells were treated with increasing amount of metixene.
as §2

A further data set has as its system BT-474Br. The data set is described as follows: Cell viability assay. Type of data set: cell-based. On the procedure: (§8) Following the determination of an appropriate range for treatment of BCBM cells, the anti-cancer activity of metixene was evaluated in the brain metastatic HER2-positive BT-474Br and the triple-negative MDA-MB-231Br cell lines, using increasing concentrations of the drug at different time points.

A further data set has as its system MDA-MB-231Br. The data set is described as follows: Cell viability assay. The format is cell-based. On the procedure:
as §8

Data set [11] concerns caspase 3/7 activity in MDA-MB-231Br. Description: Caspase 3/7 assay. Type of data set: cell-based.
Data set [12] concerns HCC1954 mammary fat pad tumors. The data set is described as follows: Mammary fat pad tumor model. The format is in vivo, nude mice. The protocol:
as §4
The efficacy of metixene hydrochloride was evaluated using an in vivo model. HCC1954 cells were injected into the mammary fat pads of nude mice. After the formation and establishment of 5 mm breast tumors, mice were randomly divided into three groups whereby treatment was administered intraperitoneally: control (25% captisol); metixene (0.1 mg/kg); and metixene (1.0 mg/kg). The dosages were given three times a week. After 6 weeks, fat pad tumors were collected and analyzed (FIG. 2A).

Data set [13] deals with WM3734 melanoma brain metastatic cells. Description: Cell killing in melanoma brain metastatic cells. Type of data set: cell-based. The following applies: increasing amount of metixene. The protocol:
as §7, §2

For another data set, the system named is CT2A glioma cells. The data set is described as follows: Cell killing in glioma cells. The format is cell-based. The following applies: increasing amount of metixene. On the procedure:
as §7, §2

For data set [14], the system named is LC3 in MDA-MB-231-Br cells. The data set is described as follows: LC3 conversion and autophagy flux. Type of data set: cell-based. The following applies: 10 μM, time course. On the procedure: Next, MDA-MB-231-Br cells were treated with metixene for different durations to determine the mechanism of autophagic signaling in brain metastatic cells. […] Afterward, autophagy flux changes after ten minutes, one hour, and three hours of treatment were tested. LC3 II levels in control (untreated) cells, cells treated with chloroquine (25 μM), cells treated with metixene (10 μM), and cells treated with metixene and chloroquine were compared.

Another data set relates to HCC1954. Description: CNS drug screen, cell viability, trastuzumab-resistant line. The conditions noted are these: 25 μM. The format is cell-based. On the procedure:
as §6
HER2-positive breast cancer has the greatest risk for intracranial-specific metastases. When metastatic cancer cells colonize the brain, they develop resistance to systemic therapies, such as trastuzumab. For this reason, another blinded screen was conducted on a metastatic breast cancer cell line that is trastuzumab-resistant, HCC1954. At 25 μM, the screen yielded five hits that caused a nearly complete loss of cell viability. […] Next, the effect of metixene on different metastatic breast cancer cell lines was determined by measuring its IC50 in two HER2-positive cell lines (BT474 and HCC1954) and five triple-negative breast cancer cell lines (MDAMB-231-Br, HCC1806, HS578T, HCC3153, and SUM159) after 72 hours of treatment.

Setting [15] is: dose-dependent treatment, Western blot.

For the compound `C=CCNC1=C2C[C@@H](C)C[C@H](OC)[C@H](O)[C@@H](C)/C=C(\C)[C@H](OC(N)=O)[C@@H](OC)/C=C\C=C(/C)C(=O)NC(=CC1=O)C2=O` [17-AAG], the “reduction of α-synuclein in cells” value in the data set with α-synuclein is listed as “effective in reducing α-synuclein in cells”.
Take `CCN(CC)CCCC(C)Nc1ccnc2cc(Cl)ccc12` (stereo not drawn) [chloroquine]: the toxicity result in the data set on brain metastases (vs controls) is “no increase in toxicity”. For the same compound, the overall survival in the data set with brain metastases (controls 7.42 months, P=0.839) is 10.2 months. Besides, in data set [1], the BBB permeability result is listed as “low permeability of the BBB”.
On to `CN1CCCC(CC2c3ccccc3Sc3ccccc32)C1` (stereo not drawn) [metixene], for which the “caspase 3/7 activity” value was “significant increase in caspase 3/7 activity” in data set [2] (24 hours); “increased significantly” in [2] (48 hours, 15 μM); “significant increase in caspase 3/7 activity” in data set [11] (24 hours, 10 μM and 15 μM); “increased significantly” in data set [11] (48 hours, 15 μM). Moreover, in the data set on NDRG1 in MDA-MB-231Br, the “expression of NDRG1 and pNDRG1” value was “increased significantly in a dose-dependent manner”. The “apoptosis (caspase 3/7) in NDRG1 KO cells vs control” value in [3] (10 μM (P=0.0078) and 15 μM (P<0.0001)) is “significantly reduced”. In data set [3] (10 μM (P=0.0271) and 20 μM (P<0.0001)), the “viability of NDRG1 KO cells vs control cells” value is reported as “significantly more viable”. In addition, in data set [3] (setting [15]), the “LC3II levels in NDRG1 KO cells vs vector control” value is “decreased significantly”. In data set [3] (setting [15]), the “p62 levels in NDRG1 KO cells vs vector control” value was “significant decrease”. In addition, the “LC3 II levels” value in [4] (increasing concentration) is reported as “increased as the concentration of metixene increased”. In addition, the “ratio of LC3 II to I levels” value in data set [4] (increasing concentration) was “trended upwards with increasing concentration”. The SQSTM1/p62 levels entry in [4] (increasing concentration (FIG. 3F)) is on record as “increased with increasing concentration”. Besides, the median survival in [5] (1.0 mg/kg intraperitoneally three times per week, control 52 days, p=0.0008) was determined as 64 days; in data set [9] (control 44 days) it was 67 days. The “luciferase signal in the brain” value in [5] (1.0 mg/kg, after six weeks of treatment, vs controls, p=0.02) is “significant reduction”. For the same compound, the “cleaved caspase-3 protein levels” value in data set [6] and in [7] was “markedly increase” throughout. Also, the LC3 puncta accumulation entry in the data set on LC3 in BT-474Br cells is recorded as “significant increase in the accumulation of puncta”. For the same compound, the “reduction in cell viability” value in [8] is given as “top hit in both screens”. Also, in data set [9], the “increase in survival in comparison to controls” value is 52%. Further, the “concentration at which potent cell-killing effect begins” value in data set [10] was 10 µM; in data set [13] it was 10 µM; with CT2A glioma cells, 5 µM. Besides, the cell viability result in the data set on BT-474Br (24 hours) is “significant reduction in cell viability”; with BT-474Br (48 hours, 15 μM), “significantly decreased”; in the data set on MDA-MB-231Br (24 hours), “significant reduction in cell viability”; in the data set on MDA-MB-231Br (48 hours, 5, 10, and 15 μM) it was “significantly decreased”. The tumor weight entry in [12] (0.1 mg/kg intraperitoneally three times a week, 6 weeks, P=0.0043) is “decreased significantly”; in data set [12] (1.0 mg/kg intraperitoneally three times a week, 6 weeks, P=0.0004), “decreased significantly”. The “percent of cleaved caspase-3-positive cells in tumor sections” value in data set [12] (0.1 mg/kg, p=0.001) is “significant increase”; in [12] (1.0 mg/kg, p=0.0002), “significant increase”. Also, in data set [12] (0.1 and 1.0 mg/kg intraperitoneally three times a week, 6 weeks, p<0.0001), the tumor volume result is on record as “decreased significantly”. For the same compound, the BBB permeability result in [1] was “BBB permeable”. In addition, the “conversion of LC3 I to LC3 II” value in data set [14] is on record as “increase as early as ten minutes”. In addition, the “loss of cell viability” value in the data set with HCC1954 is reported as “top hit in both screens”.
